The text below walks through data of patent US20170258769A1, “A Method for Topically Treating Actinic Keratosis on the Trunk (except chest) and Extremities with Ingenol 3-(3,5-diethylisoxazole-4-carboxylate)” (LEO Laboratories Limited, priority 2014, published 2017).

For one series, the system named is actinic keratosis. The series can be described thus: Part 2: open-label trial, 0.1% gel once daily for three consecutive days on trunk (except chest) and extremities. It counts as in vivo, human. The source says: The outcome for Part 2 is safety and efficacy in a once daily application for three consecutive days on the trunk (except chest) and extremities. The efficacy in treating of the AK will be measured as reduction in AK count in the treated area of lesions which are not considered hyperkeratotic/hypertrophic.
In parallel the efficacy in treating of the AK will be measured as reduction in AK count in the treated area of lesions which are considered hyperkeratotic/hypertrophic.
The reduction in AK count will be performed at week 4 and 8 no matter the type of lesion. Also complete clearance of AKs in the treated area which are not considered hyperkeratotic/hypertrophic at week 8 will be measured.
The trial medication applied is preferably a gel. The gel formulation comprises: isopropyl alcohol, hydroxyethyl cellulose, benzyl alcohol, citric acid monohydrate, sodium citrate dehydrate and water and active compound in a 0.1% concentration. For this particular trial, the dosing is two unit dose tubes daily, each containing 0.67 g.
To qualify for part 2 of the trial, the subjects must have 5-20 clinically visible and discrete AKs within a contiguous are of approximately 250 cm^2 area on the trunk (except chest) and extremities. In addition to the requirement of 5-20 clinically typical, visible and discrete AKs within the selected treatment area, subjects may also have visible and discrete hyperkeratotic/hypertrophic lesions in this area. The subjects will be treated with a dose of 0.1% as a once daily three consecutive days treatment and followed for 8 weeks.
The trial consists of an initial part, where 18 subjects will be treated on the trunk (except chest) and extremities. […] As this is a safety trial, it is considered justified to conduct this clinical trial as an open-label, uncontrolled trial. An early safety and tolerability evaluation will be performed following the 3 days treatment. If safety and tolerability is found acceptable by the Early Data Review Committee, and additional 44 subjects will be enrolled in order to expand safety observations and obtain an estimate of treatment efficacy.
LSRs are evaluated at all visits following visit 1. AK lesion counts are performed on Visit 2, 6 and 7.
tactile) assessment of the extent of photo-damage in the treatment area with respect to 1) fine wrinkling, 2) coarse wrinkling, 3) mottled pigmentation, 4) roughness, 5) sallowness, 6) skin laxity, and 7) telangiectasia. Severity for each of these characteristics will be on a 5-point scale: None (0), Mild (1), Moderate (2), Severe (3), Extreme (4).
At Visit 7 (Week 8) the Investigator will make an overall clinical (visual and tactile) assessment of the subject's photo-damage change from baseline in the treatment area (including an integrated assessment of fine wrinkling, coarse wrinkling, mottled pigmentation, roughness, sallowness, skin laxity, and telangiectasia based on the subject's appearance at the baseline visit).
At Visit 7 (Week 8), the subjects will complete a self-assessment questionnaire evaluating the change in the 1) overall appearance of the skin and 2) overall feel of the skin after treatment. The scoring will be on a 5-point scale: Much worsened, somewhat worsened, no change, somewhat improved, much improved.
The secondary response criteria will be analysed for the full analysis set and for the per protocol analysis set. The ratio of number of AK lesions at week 8 relative to baseline, excluding lesions identified at base line as hyperkeratotic/hypertrophic lesions, will be tabulated by treatment group. Separately for each treatment group, the rate and corresponding 95% confidence interval will be estimated from a negative binomial regression on the AK count at week 8 with the log baseline value as an offset variable. The same analysis will be performed for the subgroup of lesions identified as hyperkeratotic/hypertrophic at baseline. […]

Series [1] can be described thus: Part 1: dose escalation trial, gel once daily for two consecutive days, dose limiting toxicity based on local skin reactions. It counts as in vivo, human. The source says: Local skin reactions (LSRs) occur sometimes in the treated area. Often LSRs are quantified by a scale evaluating the following types of skin reactions: erythema, flaking/scaling, crusting, swelling, vasiculation/postulation, and erosion/ulceration which are categorized into categories 0-4 depending on the severity of the reactions. The present invention utilizes data obtained from a previous dose escalation trial, wherein maximal tolerated doses were identified.
In the trial pre-defined grades of LSRs will constitute Dose Limiting Toxicity.
Dose Limiting toxicity (DLT) is defined one or more of the following LSRs: • crusting Grade 4 • Erosion/ulceration Grade 4 • vesiculation/postulation Grade 4 or
Two or more of the following LSRs: • Crusting Grade 3 • Swelling grade 4 • Erosion/ulceration Grade 3 • vesiculation/postulation Grade 3 or • other clinically relevant signs or symptoms observed, which the Investigator judges to be counted as a DLT. Maximum tolerated dose (MTD) is declared as dose level at which less than 4 subjects out of experience a DLT of cohort of 12 subjects.
Part 1 was a dose escalation study conducted with a once daily application of trial medication for two consecutive days and continued until the MTD was identified.
Dose escalation proceeded if the safety and tolerability data of the subject up to day 8 was reviewed and considered satisfactory. The treatment consisted of once daily treatment for 2 consecutive days. Up to 5 different doses may be investigated in cohorts of 1 subject. The number of subjects in each cohort depended on the number of observed DLTs. However, the MTD was always be confirmed in a cohort of 12 subjects. […] Part 2 is a study of the efficacy of the 0.1% dose identified in part 1 in a three day regimen.
Part 1: Trial medication, ingenol 3-(3,5-diethylisoxazole-4-carboxylate) gel, will be applied to the treatment area once daily for two consecutive days until the maximum tolerated dose has been reached for each formulation. Up to five different doses of active compound in gel may be investigated in cohorts 12 subjects. […]

A further series deals with dermal tumours. Kind of series: in vivo studies in mice, effects on dermal tumours. The source says: The exact mechanism of action of ingenol 3-(3,5-diethylisoxazole-4-carboxylate) continues to be investigated, but it is believed that ingenol 3-(3,5-diethylisoxazole-4-carboxylate) has a dual mechanism of action inducing cell death as well as stimulation of immune response.

Setting [2] is: highest dose 0.1%, once daily for 2 consecutive days.

On to `CCc1noc(CC)c1C(=O)O[C@H]1C(C)=C[C@]23C(=O)[C@@H](C=C(CO)[C@@H](O)[C@]12O)[C@H]1[C@@H](C[C@H]3C)C1(C)C` [ingenol 3-(3,5-diethylisoxazole-4-carboxylate)], for which, in the series on actinic keratosis (0.1% gel, once daily three consecutive days), the side-effects entry was “acceptable”. Moreover, the “reduction in AK count” value in the series on actinic keratosis (0.1% gel, once daily three consecutive days, approx. 250 cm^2 area, week 8, 62 patients) was 59%. This molecule registered a complete clearance in the series with actinic keratosis (0.1% gel, once daily three consecutive days, week 8) of 23%. The “time at which side-effects maximize” value in the series on actinic keratosis (0.1% gel, once daily three consecutive days, rapid decline thereafter) is 4 days. Further, the “cosmetic outcome of the treatment” value with actinic keratosis (0.1% gel, three day regimen) is “good”. Besides, the “patients with photo damage improved” value with actinic keratosis (investigator assessment, fraction of patients) was “two-thirds”. Besides, the “subjects reporting improvement in appearance and feel” value with actinic keratosis (self-assessment by subject) was “more than 70%”. Further, in series [1] (setting [2]), the “dose limiting toxicity (DLT)” value is recorded as “no real DLT was identified” and the tolerability entry is given as “well tolerated”. Moreover, the “tolerability with respect to LSRs and application site reaction” value in series [1] (selected dose (0.1%), two days dosing regimen) is “well tolerated”. Further, the “efficacy in eliminating dermal tumours, compared with ingenol mebutate” value in the series with dermal tumours is “more efficacious than ingenol mebutate”.
